Tests used:
rat brain slices = assay: ex vivo incubation of rat brain slices, levels of PEA and OEA; format: cell-based; conditions: rat brain slices incubated ex vivo for 15, 30 or 60 min; FIG. 1
From the text: The values, mean and DS, are expressed as molar % of the total fatty acids. Different letters indicate significant differences (p<0.05); the One-way ANOVA statistical analysis was used, with Tukey test for post-hoc analysis. Similar results were obtained by using pure (99%) c9,t11 isomer.
(§1) The methods employed for the analysis of the levels of conjugated linoleic acid, PEA and OEA in vivo and in vitro are described in detail in (Melis et al. 2001) and in (Piscitelli et al. 2011), respectively.
On the contrary, WY14643 (WY), a synthetic agonist of PPAR alpha used as a comparison since it is an inductor of PPAR alpha, increases the levels of PEA and OEA by about 3-4 times (FIG. 1B).

frontal cortex of mice = assay: in vivo administration to mice, levels of OEA in the frontal cortex; conditions: acute administration 12 hours prior to sacrifice, FIG. 2
From the text: The values, mean and DS, are expressed as pmoles/g tissue. Different letters indicate significant differences (p<0.05); the One-way ANOVA statistical analysis was used, with Tukey test for post-hoc analysis.
as §1
(§2) Since astrocytes are involved in neuroinflammation, the action of CLA (80% c9,t11 isomer) was also verified in cultures of astrocytes after having induced neuroinflammation with LPS. Oleic acid was used as a control.

TNF alpha in astrocytes = assay: TNF alpha in cultures of astrocytes after induced neuroinflammation with LPS; format: cell-based; conditions: treatment then LPS, oleic acid as control, p<0.05, FIG. 3
From the text: as §2

TNF alpha in microglia = TNF alpha in microglia in vitro; format: cell-based
From the text: The PEA and OEA increase, since it sustains PPAR alpha activation, is crucial for the physiologic response to neuroinflammatory events, in addition to preserving the homeostasis of the dopaminergic system. In fact, CLA can reduce in vitro the levels of TNF alpha in both astrocytes and microglia.

Molecule | increase of the levels of OEA (rat brain slices) | increase of the levels of PEA (rat brain slices) | levels of OEA in the frontal cortex (frontal cortex of mice) | TNF alpha in cultured astrocytes (TNF alpha in astrocytes) | TNF alpha in cultured astrocytes (TNF alpha in astrocytes; listed as CLA) | levels of TNF alpha in microglia (TNF alpha in microglia)
Cc1cccc(Nc2cc(Cl)nc(SCC(=O)O)n2)c1C [WY14643, reference compound] | 3-4 times | 3-4 times | – | – | – | –
conjugated linoleic acid [CLA (80% c9,t11 isomer)] | about 5 times | about 5 times | significantly increases | significant decrease | reduce | reduce
